From ChEMBL document CHEMBL1201862, “PubChem BioAssay data set” (2004)
The source made the active and inactive calls.

Experiments:
[1] = biological target: SWI/SNF-related matrix-associated actin-dependent regulator of chromatin subfamily A member 2 (Homo sapiens, UniProt P51531); assay: Luminescence-based cell-based high throughput dose response assay to identify activators of the function of SWI/SNF related, matrix associated, actin dependent regulator of chromatin, subfamily a, member 2 (SMARCA2, BRM).; assay type: functional
Sequence of SWI/SNF-related matrix-associated actin-dependent regulator of chromatin subfamily A member 2 (P51531 whole entry): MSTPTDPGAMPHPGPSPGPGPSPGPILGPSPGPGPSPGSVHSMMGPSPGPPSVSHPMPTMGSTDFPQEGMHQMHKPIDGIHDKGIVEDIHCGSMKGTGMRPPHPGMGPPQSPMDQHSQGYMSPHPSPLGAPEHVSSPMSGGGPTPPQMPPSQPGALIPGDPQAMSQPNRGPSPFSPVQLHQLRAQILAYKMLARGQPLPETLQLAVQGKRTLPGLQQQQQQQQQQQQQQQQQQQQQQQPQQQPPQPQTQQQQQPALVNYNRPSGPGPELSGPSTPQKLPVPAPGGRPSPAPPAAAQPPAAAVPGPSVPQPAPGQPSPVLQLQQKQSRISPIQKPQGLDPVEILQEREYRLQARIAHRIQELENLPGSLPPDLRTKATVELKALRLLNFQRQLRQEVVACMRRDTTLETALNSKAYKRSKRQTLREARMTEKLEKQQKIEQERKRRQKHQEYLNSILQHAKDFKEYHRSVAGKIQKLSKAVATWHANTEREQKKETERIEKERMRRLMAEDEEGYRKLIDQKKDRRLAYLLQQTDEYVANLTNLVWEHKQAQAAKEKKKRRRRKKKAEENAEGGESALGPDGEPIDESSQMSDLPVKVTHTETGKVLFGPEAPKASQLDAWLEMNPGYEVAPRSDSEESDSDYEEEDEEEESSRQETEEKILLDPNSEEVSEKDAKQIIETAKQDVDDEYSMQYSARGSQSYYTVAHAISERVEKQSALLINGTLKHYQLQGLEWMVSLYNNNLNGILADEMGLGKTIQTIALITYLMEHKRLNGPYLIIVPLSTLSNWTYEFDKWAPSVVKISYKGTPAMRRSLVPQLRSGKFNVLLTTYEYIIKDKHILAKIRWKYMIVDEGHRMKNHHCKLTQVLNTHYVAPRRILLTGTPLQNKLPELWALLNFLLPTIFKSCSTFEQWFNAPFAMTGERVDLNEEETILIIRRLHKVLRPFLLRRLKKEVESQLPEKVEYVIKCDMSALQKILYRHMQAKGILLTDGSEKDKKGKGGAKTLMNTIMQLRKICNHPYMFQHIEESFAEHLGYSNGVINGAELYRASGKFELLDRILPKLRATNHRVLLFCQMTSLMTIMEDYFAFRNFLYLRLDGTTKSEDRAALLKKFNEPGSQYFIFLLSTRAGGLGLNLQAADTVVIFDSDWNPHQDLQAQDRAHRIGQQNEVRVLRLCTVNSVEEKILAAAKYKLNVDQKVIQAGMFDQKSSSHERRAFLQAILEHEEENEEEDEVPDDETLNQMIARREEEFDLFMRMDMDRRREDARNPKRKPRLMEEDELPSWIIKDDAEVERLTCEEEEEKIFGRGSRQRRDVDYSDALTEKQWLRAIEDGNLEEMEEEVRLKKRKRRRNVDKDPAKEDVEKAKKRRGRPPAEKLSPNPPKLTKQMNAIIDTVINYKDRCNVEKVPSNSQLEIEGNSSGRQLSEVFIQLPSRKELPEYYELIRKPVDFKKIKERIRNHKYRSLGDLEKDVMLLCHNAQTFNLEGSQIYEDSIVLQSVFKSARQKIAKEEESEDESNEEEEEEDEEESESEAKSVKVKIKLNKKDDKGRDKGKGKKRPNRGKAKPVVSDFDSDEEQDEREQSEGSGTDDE

[2] = Counterscreen for activators of the function of SWI/SNF related, matrix associated, actin dependent regulator of chromatin, subfamily a, member 2 (SMARCA2, BRM): Luminescence-based cell-based high throughput dose response assay to identify non-selective compounds using the VP16 reporter assay.; assay type: functional
[3] = biological target: T1, Rac GTPase-activating protein 1 (Homo sapiens, UniProt Q9H0H5); assay: blockers of MgcRacGAP-driven Rac1 GTP hydrolysis – biochemical, ADP Hunter fluorescence, primary and confirmatory, confirmation (AID 624330); assay type: functional
T1 sequence (Q9H0H5 whole entry): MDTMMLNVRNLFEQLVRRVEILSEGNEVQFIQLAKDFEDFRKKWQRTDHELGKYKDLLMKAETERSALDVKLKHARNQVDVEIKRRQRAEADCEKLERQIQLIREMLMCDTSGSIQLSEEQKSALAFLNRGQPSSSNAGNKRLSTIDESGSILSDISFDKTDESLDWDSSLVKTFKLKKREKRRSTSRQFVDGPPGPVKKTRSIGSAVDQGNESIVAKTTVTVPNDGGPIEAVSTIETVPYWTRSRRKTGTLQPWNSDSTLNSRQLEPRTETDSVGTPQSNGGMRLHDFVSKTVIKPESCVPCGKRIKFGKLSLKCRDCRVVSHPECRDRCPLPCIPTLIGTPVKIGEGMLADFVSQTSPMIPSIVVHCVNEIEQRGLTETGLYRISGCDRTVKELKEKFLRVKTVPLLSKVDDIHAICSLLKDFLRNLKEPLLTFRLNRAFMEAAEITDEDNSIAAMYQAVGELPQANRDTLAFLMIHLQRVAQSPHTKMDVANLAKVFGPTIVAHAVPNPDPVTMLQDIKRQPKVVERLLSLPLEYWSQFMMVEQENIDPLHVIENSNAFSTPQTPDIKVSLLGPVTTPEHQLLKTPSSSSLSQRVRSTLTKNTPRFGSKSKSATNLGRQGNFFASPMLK

Vero = assay: viability loss in Vero cells – cell-based, plate reader, cherry-pick samples, cytotoxicity control, dose response (AID 687020); assay type: functional; conditions: Chlorocebus sabaeus
[4] = rescue of ΔF508 CFTR function, airway epithelium – human bronchial epithelial cells, plate reader, cherry-pick, two tests, dose response (AID 743267); assay type: functional, cell-based
[5] = fluconazole-exposed Candida albicans growth modulators – fluorescence, retest, confirmation (AID 2467); assay type: functional, cell-based
[6] = NIH-3T3 fibroblast cytotoxicity, dose response, cytotoxicity control, cell-based, fluorescence, Alamar Blue, secondary assay (AID 2327); assay type: functional;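 also: NIH-3T3 mouse fibroblasts cultured with fluconazole at 8 µg/mL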
[7] = viability loss in HeLa cells – cytotoxicity control for MgcRacGAP inhibitor project, dose response (AID 624300); assay type: functional
[8] = inhibition of bursicon-driven LGR2 cAMP signaling – cell-based, HEK293, CRE-luciferase reporter, cherry pick, dose response (AID 743342); assay type: functional
[9] = inhibition of ADAM10 peptide cleavage – biochemical, FRET peptide substrate, recombinant human ADAM10, selectivity assay for ADAM17 exosite inhibitor project, dose response (AID 743259);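 also: ADAM10 enzyme cleaving a FRET peptide substrate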
[10] = biological target: Disintegrin and metalloproteinase domain-containing protein 17 (Homo sapiens, UniProt P78536); assay: exosite inhibitors of ADAM17, dose response, biochemical (AID 743260)
Sequence of Disintegrin and metalloproteinase domain-containing protein 17 (P78536 whole entry, the tested form may be a part): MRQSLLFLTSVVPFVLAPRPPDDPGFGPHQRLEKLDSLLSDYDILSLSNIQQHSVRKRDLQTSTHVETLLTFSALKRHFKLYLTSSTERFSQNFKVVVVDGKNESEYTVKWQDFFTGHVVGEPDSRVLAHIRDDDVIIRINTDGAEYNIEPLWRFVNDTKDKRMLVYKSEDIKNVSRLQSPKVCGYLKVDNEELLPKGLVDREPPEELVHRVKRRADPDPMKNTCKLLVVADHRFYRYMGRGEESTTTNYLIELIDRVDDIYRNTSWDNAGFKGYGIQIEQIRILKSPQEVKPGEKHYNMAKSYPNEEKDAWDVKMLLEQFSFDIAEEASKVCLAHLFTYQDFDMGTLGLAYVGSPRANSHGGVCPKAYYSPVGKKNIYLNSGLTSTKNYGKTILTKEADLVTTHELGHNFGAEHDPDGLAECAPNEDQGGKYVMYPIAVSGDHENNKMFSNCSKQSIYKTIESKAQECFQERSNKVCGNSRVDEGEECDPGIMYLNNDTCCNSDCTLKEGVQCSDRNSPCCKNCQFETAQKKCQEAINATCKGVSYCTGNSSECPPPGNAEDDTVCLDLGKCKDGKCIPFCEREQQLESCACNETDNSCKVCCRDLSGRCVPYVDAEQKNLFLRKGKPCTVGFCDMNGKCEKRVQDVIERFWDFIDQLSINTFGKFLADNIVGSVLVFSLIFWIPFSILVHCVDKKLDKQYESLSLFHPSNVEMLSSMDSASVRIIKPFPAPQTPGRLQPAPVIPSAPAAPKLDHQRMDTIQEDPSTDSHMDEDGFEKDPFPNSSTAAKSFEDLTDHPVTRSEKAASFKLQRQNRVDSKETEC

Nonstructural protein 1 = Nonstructural protein 1 (Influenza A virus, UniProt Q194T2); assay type: functional, Influenza A virus (A/California/07/2009(H1N1))
Sequence of Nonstructural protein 1 (Q194T2 whole entry): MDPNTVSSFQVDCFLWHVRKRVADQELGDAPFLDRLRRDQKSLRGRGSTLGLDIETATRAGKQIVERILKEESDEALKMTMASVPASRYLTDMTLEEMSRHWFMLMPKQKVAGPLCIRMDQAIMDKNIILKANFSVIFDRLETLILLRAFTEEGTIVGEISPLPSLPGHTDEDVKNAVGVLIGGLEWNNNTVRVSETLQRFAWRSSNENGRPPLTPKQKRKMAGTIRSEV

INS1 = assay: INS-1E survival protection against cytokine death – cell-based, luminescence, retest, dose response (AID 449756); assay type: functional; conditions: Rattus norvegicus;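 also: cell death triggered by IL-1 beta plus TNF-alpha plus IFN-gamma mixture; protective hits raise ATP signal compared with cytokine alone wells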
[11] = reduction of Shn3 3'UTR-driven luciferase in osteoblasts – cell-based, Clone20 osteoblasts, firefly luciferase, cherry-picked, dose response (AID 624132); assay type: functional;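 also: firefly luciferase luminescence from reporter carrying the Shn3 3'UTR in osteoblasts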
[12] = non-specific 3'UTR reporter inhibition in Clone20-Shn3RL – cell-based, Renilla luciferase, cherry-picked, counter-screen for Shn3 inhibitor project, dose response (AID 624133); assay type: functional
[13] = loss of viability in HepG2 cells – cell-based, CellTiter-Glo, cherry-picked, cytotoxicity control for Shn3 inhibitor project, dose response (AID 624134); assay type: functional
[14] = Trypanosoma cruzi growth suppression in host cells – NIH3T3 host cells, beta-gal luminescence, confirmation (AID 2044); assay type: functional, cell-based;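 also: intracellular parasites grown in NIH/3T3 mouse fibroblasts as host cells; luminescent beta-galactosidase reporter signal from transgenic T. cruzi replicating inside host cells; inhibitors lower the luminescence signal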
Protein S100-A4 = Protein S100-A4 (Homo sapiens, UniProt P26447); assay: human S100A4 peptide interaction inhibition curves – biochemical, fluorescence polarization, cherry-picked hits, dose response (AID 687001); assay type: functional
Sequence of Protein S100-A4 (P26447 whole entry): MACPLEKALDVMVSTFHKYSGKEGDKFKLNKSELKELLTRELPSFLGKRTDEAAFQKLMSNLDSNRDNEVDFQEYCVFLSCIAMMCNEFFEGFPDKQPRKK

[15] = NIH3T3 cell viability loss – ATP luminescence, mouse fibroblasts, counter-screen, dose response (AID 2010); assay type: functional, cell-based;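 also: cells exposed to compound for about 90 hours before reading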
[16] = viability loss in HEK293T cells – cell-based, cherry-picks, cytotoxicity control for HIV Vif inhibitor project, dose response (AID 652208); assay type: functional
[17] = OV-90 cell viability loss – plate reader, dry powder, SA8, PAX8 inhibitor project, dose response (AID 743149); assay type: functional, cell-based
[18] = inhibitors acting on PAX2 in cells – cell-based, plate reader, dry powder samples, selectivity assay for PAX8 inhibitor project, dose response (AID 743048); assay type: functional;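 also: HEK293 cells carrying a WT1 promoter luciferase reporter driven by expressed Pax2; potency is for inhibition of Pax2 driven reporter signal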
[19] = COV434 cell viability loss – plate reader, dry powder, SA7, cytotoxicity control for PAX8 inhibitor project, dose response (AID 743145); assay type: functional, cell-based
[20] = PAX5 cellular inhibition readout – cell-based, plate reader, dry powder samples, selectivity assay for PAX8 inhibitor project, dose response (AID 743047); assay type: functional;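 also: HEK293 cells carrying a Pax5 driven CD19 promoter luciferase reporter; potency of inhibitors that lower reporter luminescence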
[21] = PAX8-dependent cell viability loss – plate reader, dry powder, dose response (AID 743049); assay type: functional, cell-based
[22] = IGROV1 cell killing – plate reader, dry powder samples, PAX8 inhibitor project, dose response (AID 743043); assay type: functional, cell-based; conditions: IGROV-1
[23] = OVCAR-3 cell viability loss – plate reader, dry powder samples, PAX8 inhibitor project, dose response (AID 743044); assay type: functional, cell-based
[24] = COV362 cell viability loss – plate reader, dry powder, SA12, cytotoxicity control for PAX8 inhibitor project, dose response (AID 743144); assay type: functional, cell-based
Paired box protein Pax-8 = Paired box protein Pax-8 (Homo sapiens, UniProt Q06710); assay: PAX8 transcriptional activity inhibition in RMG-I – RMG-I cells, luciferase, cherry-pick, dose response (AID 687027); assay type: functional, cell-based;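 also: luciferase reporter driven by Pax8 target thyroperoxidase promoter measured by SteadyGlo luminescence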
Sequence of Paired box protein Pax-8 (Q06710 whole entry): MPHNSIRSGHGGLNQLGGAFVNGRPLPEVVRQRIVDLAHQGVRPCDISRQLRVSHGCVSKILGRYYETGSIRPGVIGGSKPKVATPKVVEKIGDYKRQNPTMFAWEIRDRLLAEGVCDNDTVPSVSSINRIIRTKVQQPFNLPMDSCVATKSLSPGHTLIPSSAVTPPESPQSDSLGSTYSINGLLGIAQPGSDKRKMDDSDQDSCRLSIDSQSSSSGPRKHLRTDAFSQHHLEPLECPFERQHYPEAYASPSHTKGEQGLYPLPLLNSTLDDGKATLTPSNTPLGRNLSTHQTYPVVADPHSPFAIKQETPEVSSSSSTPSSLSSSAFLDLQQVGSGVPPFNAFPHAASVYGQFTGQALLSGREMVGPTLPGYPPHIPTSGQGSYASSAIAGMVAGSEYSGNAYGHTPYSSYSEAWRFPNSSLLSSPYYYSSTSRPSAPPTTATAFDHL

[25] = HEK293 Cytotoxicity Assay Measured in Cell-Based System Using Plate Reader - 7071-01_Inhibitor_Dose_CherryPick_Activity_Set2.; assay type: functional
HEK293 = assay: viability loss in HEK293T cells – cell-based, ATP luminescence, cherry-pick samples, cytotoxicity control, dose response (AID 687005); assay type: functional; conditions: Homo sapiens;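 also: cells exposed to compound for 48 hours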
[26] = biological target: Protein disulfide-isomerase (Homo sapiens, UniProt P07237); assay: inhibition of PDI-mediated insulin reduction – biochemical, turbidity, dry powder samples, set 2, confirmation (AID 652146)
Sequence of Protein disulfide-isomerase (P07237 whole entry): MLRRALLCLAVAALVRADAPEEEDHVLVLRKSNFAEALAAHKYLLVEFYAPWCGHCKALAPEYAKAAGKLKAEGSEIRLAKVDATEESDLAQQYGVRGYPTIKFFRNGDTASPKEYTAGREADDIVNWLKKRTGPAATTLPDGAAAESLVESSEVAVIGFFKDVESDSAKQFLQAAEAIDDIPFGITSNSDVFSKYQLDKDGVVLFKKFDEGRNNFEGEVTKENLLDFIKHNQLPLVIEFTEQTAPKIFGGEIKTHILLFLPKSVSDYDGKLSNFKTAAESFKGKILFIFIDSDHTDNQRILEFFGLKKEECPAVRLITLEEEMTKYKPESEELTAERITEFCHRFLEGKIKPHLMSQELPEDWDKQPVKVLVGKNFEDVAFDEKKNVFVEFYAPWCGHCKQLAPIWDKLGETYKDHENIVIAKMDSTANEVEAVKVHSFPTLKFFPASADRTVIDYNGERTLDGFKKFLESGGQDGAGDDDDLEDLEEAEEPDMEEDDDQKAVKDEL

Nc1ccc2c(c1)C(=O)c1cc(N)c(Cl)cc1-2
EC50 [1]: > 91.2 µM (inactive) | EC50 [2]: > 91.2 µM (inactive) | IC50 [3]: 22.1 µM (active)

O=C(NCCN1CCCC1)[C@H]1N[C@H]2c3ccc(-c4ccccc4)c(=O)n3C[C@H]2[C@@H]1CO
AC50 (Vero): 23.1 µM (active)

COc1c(O[C@@H]2O[C@H](CO)[C@@H](O)[C@H](O)[C@H]2O)cc2c(c1OC)-c1ccc(SC)c(=O)cc1[C@@H](NC(C)=O)CC2 [THIOCOLCHICOSIDE]
AC50 [4]: 50 µM (active)

COc1cc(/C=C(\C#N)c2nc3ccccc3[nH]2)ccc1O
EC50 [5]: 1.41 µM (active) | EC50 [6]: 49.9 µM (active) | CC50 [7]: 99.9 µM (active) | IC50 [3]: 15.9 µM (active)

C[C@H](CO)N1C[C@H](C)[C@H](CN(C)C(=O)Nc2ccccc2)OCCCC[C@H](C)Oc2ccc(NC(=O)NC3CCCCC3)cc2C1=O
AC50 [8]: 12 µM (active)

Cc1cc(C)n(CCc2nc(-c3ccc(C(C)(C)C)cc3)cs2)n1
IC50 [9]: 36.5 µM (inactive) | IC50 [10]: > 69.5 µM (inactive)

CN1/C(=C\C=C2/SC(=S)NC2=O)C(C)(C)c2ccccc21
IC50 (Nonstructural protein 1): 38.8 µM (active) | AC50 (INS1): 2.87 µM (active) | AC50 [11]: 2.6 µM (active) | AC50 [12]: 1.42 µM (active) | AC50 [13]: 38.6 µM (active) | EC50 [14]: 981 nM (active) | AC50 (Protein S100-A4): 819 nM (active) | EC50 [15]: 7.49 µM (active)

COC(=O)c1ccc(NCc2cc(O)ccc2O)cc1O
AC50 [16]: 26.3 µM (active)

Cc1nc2sc(C(c3ccco3)N3CCN(C(c4ccccc4)c4ccccc4)CC3)c(O)n2n1 (stereo not drawn)
AC50 [17]: 47 µM (active) | AC50 [18]: 62.5 µM (active) | AC50 [19]: 45.6 µM (active) | AC50 [20]: > 100 µM (inactive) | AC50 [21]: 8.59 µM (active) | AC50 [22]: 17 µM (active) | AC50 [23]: 40.9 µM (active) | AC50 [24]: 69 µM (active) | AC50 (Paired box protein Pax-8): 5.25 µM (active)

Cc1cccc(C)c1NC(=O)C1CCCN1C(=O)OC(C)(C)C (stereo not drawn)
AC50 [25]: 50.8 µM (active) | AC50 (HEK293): 50.8 µM (active)

C=CCOc1ccc(CN2CCC(CCOc3ccccc3)(C(=O)N(C)CC)CC2)cc1Cl
AC50 [26]: > 30 µM (inactive)
